# Laboratory results taken from patent US8916702B2 (priority 2012, dated 2014).
# Test system: HCV pseudoparticles (genotype 1a HCV E1 and E2 envelope, H77C isolate)
# Test: microbe, parasite or virus in culture
# Type: cell-based
# Details: Hepatitis C virus, Huh-7, 48 h, HCV pseudoparticles (genotype 1a, H77C) in Huh7 cells; average of duplicate; luciferase 2 days after infection
row,SMILES,EC50 [nM]
1,O=C(NCCC(NC(=O)c1ccc(Nc2nc(NC3(c4ccc(Cl)cc4)CC3)nc(OCC(F)(F)F)n2)cc1)C(=O)O)C(=O)Nc1ccc(CN2CCCCC2)cc1 (stereo not shown) [Compound 3534],7.54
2,O=C(NCC[C@H](NC(=O)c1ccc(Nc2nc(NC3(c4ccc(Cl)cc4)CC3)nc(OCC(F)(F)F)n2)cc1)C(=O)O)C(=O)Nc1ccc(Cn2ccnc2)cc1 [Compound 3540],26.2
3,O=C(NCC[C@H](NC(=O)c1ccc(Nc2nc(NC3(c4ccc(Cl)cc4)CC3)nc(OCC(F)(F)F)n2)cc1)C(=O)O)C(=O)Nc1ccc(-c2ncco2)cc1 [Compound 3547],2.09

# Same assay, conditions: Hepatitis C virus, Huh-7, read-out: Activity (EC50 class), HCV pseudoparticles (genotype 1a, H77C) in Huh7 cells; EC50 expressed as class A/B
row,SMILES,EC50 [nM]
1,O=C(NCCC(NC(=O)c1ccc(Nc2nc(NC3(c4ccc(Cl)cc4)CC3)nc(OCC(F)(F)F)n2)cc1)C(=O)O)C(=O)Nc1ccc(Cn2cccn2)cc1 (stereo not shown) [Compound 3533],0.01 to 10
2,O=C(NCCC(NC(=O)c1ccc(Nc2nc(NC3(c4ccc(Cl)cc4)CC3)nc(OCC(F)(F)F)n2)cc1)C(=O)O)C(=O)Nc1ccc(CN2CCCCC2)cc1 (stereo not shown) [Compound 3534],0.01 to 10
3,NC(=O)NCc1ccc(NC(=O)C(=O)NCCC(NC(=O)c2ccc(Nc3nc(NC4(c5ccc(Cl)cc5)CC4)nc(OCC(F)(F)F)n3)cc2)C(=O)O)cc1 (stereo not shown) [Compound 3535],0.01 to 10
4,O=C(NCCC(NC(=O)c1ccc(Nc2nc(NC3(c4ccc(Cl)cc4)CC3)nc(OCC(F)(F)F)n2)cc1)C(=O)O)C(=O)Nc1ccc(OCCc2ncccn2)cc1 (stereo not shown) [Compound 3536],0.01 to 10
5,Cn1cnnc1-c1ccc(NC(=O)C(=O)NCCC(NC(=O)c2ccc(Nc3nc(NC4(c5ccc(Cl)cc5)CC4)nc(OCC(F)(F)F)n3)cc2)C(=O)O)cc1 (stereo not shown) [Compound 3538],10 to 1000
6,O=C(NCC[C@H](NC(=O)c1ccc(Nc2nc(NC3(c4ccc(Cl)cc4)CC3)nc(OCC(F)(F)F)n2)cc1)C(=O)O)C(=O)Nc1ccc(C2=CCC(N3CCOCC3)=N2)cc1 [Compound 3539],10 to 1000
7,O=C(NCC[C@H](NC(=O)c1ccc(Nc2nc(NC3(c4ccc(Cl)cc4)CC3)nc(OCC(F)(F)F)n2)cc1)C(=O)O)C(=O)Nc1ccc(Cn2ccnc2)cc1 [Compound 3540],10 to 1000
8,Cc1nccn1-c1ccc(NC(=O)C(=O)NCC[C@H](NC(=O)c2ccc(Nc3nc(NC4(c5ccc(Cl)cc5)CC4)nc(OCC(F)(F)F)n3)cc2)C(=O)O)cc1 [Compound 3541],10 to 1000
9,Cc1nccn1Cc1ccc(NC(=O)C(=O)NCC[C@H](NC(=O)c2ccc(Nc3nc(NC4(c5ccc(Cl)cc5)CC4)nc(OCC(F)(F)F)n3)cc2)C(=O)O)cc1 [Compound 3542],10 to 1000
10,COCc1ccc(NC(=O)C(=O)NCC[C@H](NC(=O)c2ccc(Nc3nc(NC4(c5ccc(Cl)cc5)CC4)nc(OCC(F)(F)F)n3)cc2)C(=O)O)cc1 [Compound 3543],0.01 to 10
11,O=C(NCC[C@H](NC(=O)c1ccc(Nc2nc(NC3(c4ccc(Cl)cc4)CC3)nc(OCC(F)(F)F)n2)cc1)C(=O)O)C(=O)Nc1ccc(Oc2ccncc2)cc1 [Compound 3544],10 to 1000
12,O=C(NCC[C@H](NC(=O)c1ccc(Nc2nc(NC3(c4ccc(Cl)cc4)CC3)nc(OCC(F)(F)F)n2)cc1)C(=O)O)C(=O)Nc1ccc(Oc2cccnc2)cc1 [Compound 3545],0.01 to 10
13,O=C(NCC[C@H](NC(=O)c1ccc(Nc2nc(NC3(c4ccc(Cl)cc4)CC3)nc(OCC(F)(F)F)n2)cc1)C(=O)O)C(=O)Nc1ccc(OC2CCOCC2)cc1 [Compound 3546],0.01 to 10
14,O=C(NCC[C@H](NC(=O)c1ccc(Nc2nc(NC3(c4ccc(Cl)cc4)CC3)nc(OCC(F)(F)F)n2)cc1)C(=O)O)C(=O)Nc1ccc(-c2ncco2)cc1 [Compound 3547],0.01 to 10
15,CCOc1ccc(NC(=O)C(=O)NCC[C@H](NC(=O)c2ccc(Nc3nc(NC4(c5ccc(Cl)cc5)CC4)nc(OCC(F)(F)F)n3)cc2)C(=O)O)cc1 [Compound 3548],0.01 to 10
16,CC(C)(C)c1ccc(NC(=O)C(=O)NCC[C@H](NC(=O)c2ccc(Nc3nc(NC4(c5ccc(Cl)cc5)CC4)nc(OCC(F)(F)F)n3)cc2)C(=O)O)cc1 [Compound 3549],0.01 to 10
17,CC(C)c1ccc(NC(=O)C(=O)NCC[C@H](NC(=O)c2ccc(Nc3nc(NC4(c5ccc(Cl)cc5)CC4)nc(OCC(F)(F)F)n3)cc2)C(=O)O)cc1 [Compound 3550],0.01 to 10
18,CCc1ccc(NC(=O)C(=O)NCC[C@H](NC(=O)c2ccc(Nc3nc(NC4(c5ccc(Cl)cc5)CC4)nc(OCC(F)(F)F)n3)cc2)C(=O)O)cc1 [Compound 3551],0.01 to 10
19,Cc1nnnn1-c1cc(Nc2nc(NC3(c4ccc(Cl)cc4)CC3)nc(OCC(F)(F)F)n2)ccc1C(=O)NCC(C)(C)CNC(=O)C(=O)Nc1ccc(F)cc1 [Compound 3552],0.01 to 10
